Laboratory results from patent US20160317468A1, “USES OF CANNABIDIOL FOR TREATMENT OF INFANTILE SPASMS” (priority 2015, published 2016).

Assays:
infantile spasms [1] = assay: Clinical trial of a composition comprising cannabidiol in subjects with infantile spasms, overnight video-EEG on day 14; type: in vivo; conditions: human subjects 6 to 36 months who failed hormonal therapy and vigabatrin, CBD titrated to 40 mg/kg/day TID, control receives placebo
Description: Human subjects with video-EGG confirmed infantile spasms, between the ages of 6 months and 36 months, who have failed adequate treatments with hormonal therapy (adrenocorticotropic hormone (ACTH) (e.g., 150 IU/m2/day×2 weeks) and/or prednisolone (e.g., 8 mg/kg/day×2 weeks) and vigabatrin (e.g., 150 mg/kg/day×2 weeks)) will receive a composition comprising cannabidiol (“CBD”) according to the treatment schedule of Table 5. The control group receives placebo.
The 40 mg/kg/day treatment is optionally extended for up to one year in the cannabidiol group for subjects who display a response (FIG. 1). The cannabidiol dosage is tapered in the cannabidiol group according to Table 6.

infantile spasms [2] = conditions: high-dose study; intramuscular ACTH therapy; cited from earlier work

| Compound | symptoms of infantile spasms on overnight video-EEG, cannabidiol group relative to control group (infantile spasms [1]) | patients with cessation of seizures and normal EEG patterns (infantile spasms [2]) |
| --- | --- | --- |
| C=C(C)[C@@H]1CCC(C)=C[C@H]1c1c(O)cc(CCCCC)cc1O [cannabidiol, (−)-trans-2-p-mentha-1,8-dien-3-yl-5-pentylresorcinol] | reduced symptoms of infantile spasms | – |
| adrenocorticotropic hormone (SYSMEHFRWGKPVGKKRRPVKVYPNGAEDESAEAFPLEF; Corticotropin; UniProt P01189 138-176, looked up) [ACTH] | – | 13 of the 15 |
